Values belong to the compound of their own block, whether it stands above or below them.
Legend:
[1] = tested on: prostatic - PC-3; assay: Antiproliferative assay (MTT) PC-3; conditions: for IC50: read-out: Antiproliferative activity IC50 ± SEM (µM) PC-3, PC-3, MTT
[2] = Cell viability assay (MTT), normal cells; format: cell-based; conditions: human, MCF-10A normal mammary gland epithelial cells, four-day incubation
Description: The impact of novel compounds 10a-o and 13a-e on cell viability was examined using the MCF-10A (human mammary gland epithelial) normal cell line. The MTT test was employed to assess the cell viability of the novel compounds after a four-day incubation with MCF-10A cells ([El-Sherief et al., 2019]; [Ramadan et al., 2020]).
The effects of compounds 10a-o and 13a-e on cell viability were assessed using the human mammary gland epithelial normal cell line (MCF-10A). The MTT assay assessed the cell viability of compounds 10a-o and 13a-e following a four-day incubation with MCF-10A cells ([El-Sherief et al., 2019]; [Ramadan et al., 2020]). Check Supplementary Appendix A for additional information.
4.2. Biological evaluation
4.2.1 Cell Viability assay (MTT assay)
MTT assay was performed to investigate the effect of the synthesized compounds on mammary epithelial cells (MCF-10A). The cells were propagated in medium consisting of Ham's F-12 medium/ Dulbecco's modified Eagle's medium (DMEM) (1:1) supplemented with 10% foetal calf serum, 2 mM glutamine, insulin (10 μg/mL), hydrocortisone (500 ng/mL) and epidermal growth factor (20 ng/mL). Trypsin ethylenediamine tetra acetic acid (EDTA) was used to passage the cells after every 2-3 days. 96-well flat-bottomed cell culture plates were used to seed the cells at a density of 10^4 cells mL-1. The medium was aspirated from all the wells of culture plates after 24 h followed by the addition of synthesized compounds (in 200 μL medium to yield a final concentration of 0.1% (v/v) dimethyl sulfoxide) into individual wells of the plates.
Four wells were designated to a single compound. The plates were allowed to incubate at 37°C for 96 h. Afterwards, the medium was aspirated and 3-[4,5-dimethylthiazol-2-yl]-2,5-diphenyltetrazolium bromide (MTT) (0.4 mg/mL) in medium was added to each well and subsequently incubated for 3 h. The medium was aspirated and 150 μL dimethyl sulfoxide (DMSO) was added to each well. The plates were vortexed followed by the measurement of absorbance at 540 nm on a microplate reader. The results were presented as inhibition (%) of proliferation in contrast to controls comprising 0.1%

[3] = tested on: colon - HCT-116; assay: Antiproliferative assay (MTT) HCT-116; conditions: for IC50: read-out: Antiproliferative activity IC50 ± SEM (µM) HCT-116, HCT-116, MTT
[4] = tested on: tubulin; assay: Tubulin polymerization inhibition assay (Cytoskeleton kit);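 on all read-outs here: Cell-free tubulin polymerization read by fluorescent reporter enhancement over a 30 min reaction, with the compound-free kit control taken as 100% activity and inhibition relative to it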; conditions: for Tub. enzyme inhibition assay %inhibition: 30 min, codes 522-537 run; for Tub. enzyme inhibition assay K. Activity: control = 120, codes 522-537 run; for IC50: read-out: Tubulin inhibition IC50 ± SEM, triplicate for each tested concentration; for Tub. (IC50) IC50±SD: supplement raw data, lab codes
[5] = tested on: pancreatic - MDAMB-231; assay: Antiproliferative assay (MTT) MDAMB-231; conditions: read-out: Antiproliferative activity IC50 ± SEM (µM) MDAMB-231; MDAMB-231, MTT
[6] = tested on: - MDAMB-231; assay: Antiproliferative assay (MTT) MDAMB-231
[7] = tested on: breast - MCF-7; assay: Antiproliferative assay (MTT) MCF-7; conditions: for IC50: read-out: Antiproliferative activity IC50 ± SEM (µM) MCF-7, MCF-7, MTT
[8] = tested on: four human cancer cell lines (HCT-116, PC-3, MCF-7, MDAMB-231); assay: Antiproliferative assay, mean of four cell lines (GI50); conditions: for IC50: Homo sapiens, read-out: GI50 (average IC50)

SMILES: Cc1nc(SCC(=O)Nc2nc(-c3ccc(Cl)cc3)cs2)sc1C(=O)/C=C/c1ccccc1 [Compound 10f, (E)-N-(4-(4-chlorophenyl)thiazol-2-yl)-2-((5-cinnamoyl-4-methylthiazol-2-yl)thio) acetamide]
- Average of Relative viability of cells (%) ([1]; PC-3, 1.56 µM): 100%
- Average of Relative viability of cells (%) ([1]; PC-3, 3.125 µM): 91.8%
- Average of Relative viability of cells (%) ([1]; PC-3, 6.25 µM): 70.5%
- Average of Relative viability of cells (%) ([1]; PC-3, 12.5 µM): 58.2%
- Average of Relative viability of cells (%) ([1]; PC-3, 25 µM): 46.7%
- Average of Relative viability of cells (%) ([1]; PC-3, 50 µM): 32.3%
- Average of Relative viability of cells (%) ([1]; PC-3, 100 µM): 24.2%
- IC50 [1]: 22 ± 1.6 µM
- viability at 96 h, 50 µM [2]: 86%
- Average of Relative viability of cells (%) ([3]; HCT-116, 1.56 µM): 100%
- Average of Relative viability of cells (%) ([3]; HCT-116, 3.125 µM): 90.2%
- Average of Relative viability of cells (%) ([3]; HCT-116, 6.25 µM): 71.1%
- Average of Relative viability of cells (%) ([3]; HCT-116, 12.5 µM): 63.4%
- Average of Relative viability of cells (%) ([3]; HCT-116, 25 µM): 50.5%
- Average of Relative viability of cells (%) ([3]; HCT-116, 50 µM): 35.7%
- Average of Relative viability of cells (%) ([3]; HCT-116, 100 µM): 23.6%
- IC50 [3]: 25 ± 1.8 µM
- Tub. enzyme inhibition assay %inhibition ([4]; conc 0.01 (unit not given)): 5.23%
- Tub. enzyme inhibition assay K. Activity ([4]; conc 0.01 (unit not given)): 113.72
- Tub. enzyme inhibition assay %inhibition ([4]; conc 0.1 (unit not given)): 15.6%
- Tub. enzyme inhibition assay K. Activity ([4]; conc 0.1 (unit not given)): 101.33
- Tub. enzyme inhibition assay %inhibition ([4]; conc 1 (unit not given)): 34.8%
- Tub. enzyme inhibition assay K. Activity ([4]; conc 1 (unit not given)): 78.182
- Tub. enzyme inhibition assay %inhibition ([4]; conc 10 (unit not given)): 58.9%
- Tub. enzyme inhibition assay K. Activity ([4]; conc 10 (unit not given)): 49.376
- Tub. enzyme inhibition assay %inhibition ([4]; conc 100 (unit not given)): 87.6%
- Tub. enzyme inhibition assay K. Activity ([4]; conc 100 (unit not given)): 14.884
- IC50 [4]: 5.62 ± 0.17 µM
- Tub. (IC50) IC50±SD [4]: 2.88 ± 0.09 µg/mL
- IC50 [5]: 10 ± 0.9 µM
- Average of Relative viability of cells (%) ([6]; MDAMB-231, 1.56 µM): 96.1%
- Average of Relative viability of cells (%) ([6]; MDAMB-231, 3.125 µM): 79.5%
- Average of Relative viability of cells (%) ([6]; MDAMB-231, 6.25 µM): 63.2%
- Average of Relative viability of cells (%) ([6]; MDAMB-231, 12.5 µM): 38.7%
- Average of Relative viability of cells (%) ([6]; MDAMB-231, 25 µM): 27.4%
- Average of Relative viability of cells (%) ([6]; MDAMB-231, 50 µM): 17.8%
- Average of Relative viability of cells (%) ([6]; MDAMB-231, 100 µM): 14.3%
- Average of Relative viability of cells (%) ([7]; MCF-7, 1.56 µM): 100%
- Average of Relative viability of cells (%) ([7]; MCF-7, 3.125 µM): 84.7%
- Average of Relative viability of cells (%) ([7]; MCF-7, 6.25 µM): 68.3%
- Average of Relative viability of cells (%) ([7]; MCF-7, 12.5 µM): 41.9%
- Average of Relative viability of cells (%) ([7]; MCF-7, 25 µM): 33.5%
- Average of Relative viability of cells (%) ([7]; MCF-7, 50 µM): 27.4%
- Average of Relative viability of cells (%) ([7]; MCF-7, 100 µM): 19.2%
- IC50 [7]: 14 ± 1.1 µM
- Reduced potency compared to doxorubicin (GI50) ([8]; GI50 ratio): at least 2.5 fold
- Reduced potency compared to sorafenib (GI50) ([8]; GI50 ratio): ≥ 1.5 fold
- IC50 [8]: 18 µM

- IC50 [1]: 12 ± 0.9 µM
- IC50 [3]: 6 ± 0.3 µM
- IC50 [5]: 8 ± 0.4 µM
- IC50 [7]: 7 ± 0.3 µM
- IC50 [8]: 8 µM
SMILES: CNC(=O)c1cc(Oc2ccc(NC(=O)Nc3ccc(Cl)c(C(F)(F)F)c3)cc2)ccn1 [Sorafenib, reference compound]

SMILES: COc1ccc(/C=C/C(=O)c2sc(SCC(=O)Nc3nc(-c4ccccc4)cs3)nc2C)cc1 [Compound 10e, (E)-2-((5-(3-(4-methoxyphenyl)acryloyl)-4-methylthiazol-2-yl)thio)-N-(4-phenylthiazol-2-yl)acetamide]
- viability at 96 h, 50 µM [2]: 92%
- Tub. enzyme inhibition assay %inhibition ([4]; conc 0.01 (unit not given)): 2.57%
- Tub. enzyme inhibition assay K. Activity ([4]; conc 0.01 (unit not given)): 116.92
- Tub. enzyme inhibition assay %inhibition ([4]; conc 0.1 (unit not given)): 9.6%
- Tub. enzyme inhibition assay K. Activity ([4]; conc 0.1 (unit not given)): 108.49
- Tub. enzyme inhibition assay %inhibition ([4]; conc 1 (unit not given)): 20.4%
- Tub. enzyme inhibition assay K. Activity ([4]; conc 1 (unit not given)): 95.5
- Tub. enzyme inhibition assay %inhibition ([4]; conc 10 (unit not given)): 46%
- Tub. enzyme inhibition assay K. Activity ([4]; conc 10 (unit not given)): 64.791
- Tub. enzyme inhibition assay %inhibition ([4]; conc 100 (unit not given)): 83.3%
- Tub. enzyme inhibition assay K. Activity ([4]; conc 100 (unit not given)): 19.996
- IC50 [4]: 15.3 ± 0.49 µM
- Tub. (IC50) IC50±SD [4]: 7.77 ± 0.25 µg/mL
